# Patent US8673617B2, “Culture medium for Haemophilus influenzae type B” (Sanofi Pasteur SA, priority 2007, dated 2014)
# Key:
# [1] = test system: Haemophilus influenzae serotype b; assay: PRP production in liquid wheat peptone-based culture medium as a function of heme source (sandwich ELISA on supernatant); type: cell-based; settings: for Mean PRP / PRP in mg/l Assay 1 / PRP in mg/l Assay 2: wheat medium, 16 h
# Description: (§1) The production of PRP obtained after 16 hours of bacterial culture in liquid plant peptones-based culture media in which the heme source was either hemin or protoporphyrin IX of animal origin (porcine protoporphyrin) in disodium salt form, or protoporphyrin IX of purely synthetic origin in disodium salt form was compared. The hemin and protoporphyrin IX concentration ranges in the culture media varied from about 0.010 g/l to about 2 g/l so as to obtain PRP titration curves as a function of the heme source tested and as a function of the plant peptone tested. An enzymatic hydrolysate of garden pea peptone provided by Kerry (Hy pea 7404) and a wheat peptone provided by Organotechnie (19559) were tested at a concentration in the culture medium equivalent to 0.87 g/l of protein nitrogen. By reference to the current methods for the production of PRP, PRP production was also measured in a medium that contains a peptone of animal origin, such as casein hydrolysate (HAC) provided by Solabia at a concentration in the medium equivalent to 0.87 g/l with increased concentrations of hemin (see table III).
# (§2) 1.1) Preparation of the Media • 1.1.1. Stock solution of β-NAD (Fluka) at 1 g/l in water which was ultrafiltered and then sterilized by filtration through 0.22 μm. • 1.1.2. Stock solution of hemin (Sigma) at 0.25 g/l in water was ultrafiltered, comprising 5 ml of 25% aqueous ammonia (Cooper) to aid dissolution. The stock solution was sterilized by filtration through 0.22 μm. • 1.1.3. Stock solution of porcine protoporphyrin IX (Sigma) at 0.25 g/l in ultrafiltered water comprising 5 ml of 25% aqueous ammonia (Cooper) in order to facilitate the dissolution. The stock solution was sterilized by filtration through 0.22 μm. • 1.1.4. Stock solution of synthetic protoporphyrin IX at 0.25 g/l in ultrafiltered water comprising 5 ml of 25% aqueous ammonia (Cooper) in order to facilitate the dissolution. The stock solution was also heated to 80° C. in a water bath with stirring in order to complete the dissolution before being sterilized by filtration through 0.22 μm. The protoporphyrin IX, in disodium salt form, was synthesized according to the method described in the U.S. provisional patent application Ser. No. 12/057,574, filed Mar. 28, 2008 and application Ser. No. 60/943,735 and filed on Jun. 13, 2007 using the steps which are described in scheme 2. • The stock solutions of hemin and protoporphyrin IX were checked for their respective contents of active compounds after sterilizing filtration. The protoporphyrin IX and hemin contents were determined by Reversed Phase High Performance Liquid Chromatography (RP-HPLC). The chromatographic chain comprises a twin head pump module allowing the formation of a binary gradient, a programmable automatic injector, a diode array UV detector and a chromatographic column of the type Synergi 4 μm, Polar RP-80A (150×4.6) mm, ref 00F-4336-E0, Phenomenex. • The stock solution of hemin (Sigma) to be checked after filtration was diluted ⅓ in distilled water. The stock solutions of porcine protoporphyrin IX (Sigma) and of synthetic protoporphyrin IX to be checked after filtration were diluted ¼ in distilled water. In parallel, a calibration series was prepared in ammoniated water ranging from 0.025 g/l to 0.125 g/l of protoporphyrin IX from porcine protoporphyrin IX from Sigma (ref: 25838-5) and a calibration series ranging from 0.050 g/l to 0.150 g/l of hemin from hemin from Sigma (ref: H5533-256). The samples to be checked and the various solutions of the calibration series were injected in a volume of 20 μl (for the hemin solutions and samples) and of 5 μl (for the protoporphyrin IX solutions and samples). The initial mobile phase consisting of a volume for volume mixture of acetonitrile and 10 mM KH2PO4 pH 2.5 is set at a flow rate of 1 ml/min. A discontinuous gradient was then produced from this mobile phase in order to separate the molecules of interest which are detected at a wavelength of 400 nm. […]
# [2] = test system: Haemophilus influenzae serotype b; assay: PRP production in liquid garden pea peptone-based culture medium as a function of heme source (sandwich ELISA on supernatant); type: cell-based; settings: for Mean PRP / PRP in mg/l Assay 1 / PRP in mg/l Assay 2: garden pea medium, 16 h
# Description: as §1, with “The hemin and protoporphyrin IX concentration ranges in the culture media varied from about 0.010 g/l to about 2 g/l so as to obtain PRP titration curves as a function of the heme source tested and as a function of the plant peptone tested.” left out
# as §2
smiles,measurement,setting,value
"C=CC1=C(C)c2cc3[n-]c(cc4nc(cc5[n-]c(cc1n2)c(C)c5CCC(=O)O)C(CCC(=O)O)=C4C)c(C)c3C=C.[Cl-].[Fe+3] [Hemin, hemin, reference compound]",Mean PRP,[1]; hemin 11.8 μg/l,5.3 mg/L
same,PRP in mg/l Assay 1,[1]; hemin 11.8 μg/l,4.98 mg/L
same,PRP in mg/l Assay 2,[1]; hemin 11.8 μg/l,5.61 mg/L
same,Mean PRP,[1]; hemin 59 μg/l,13.35 mg/L
same,PRP in mg/l Assay 1,[1]; hemin 59 μg/l,13 mg/L
same,PRP in mg/l Assay 2,[1]; hemin 59 μg/l,13.7 mg/L
same,Mean PRP,[1]; hemin 118 μg/l,17.60 mg/L
same,PRP in mg/l Assay 1,[1]; hemin 118 μg/l,17.7 mg/L
same,PRP in mg/l Assay 2,[1]; hemin 118 μg/l,17.5 mg/L
same,Mean PRP,[1]; hemin 295 μg/l,32.75 mg/L
same,PRP in mg/l Assay 1,[1]; hemin 295 μg/l,35.3 mg/L
same,PRP in mg/l Assay 2,[1]; hemin 295 μg/l,30.2 mg/L
same,Mean PRP,[1]; hemin 590 μg/l,72.4 mg/L
same,PRP in mg/l Assay 1,[1]; hemin 590 μg/l,71.4 mg/L
same,PRP in mg/l Assay 2,[1]; hemin 590 μg/l,73.4 mg/L
same,Mean PRP,[1]; hemin 1180 μg/l,291.5 mg/L
same,PRP in mg/l Assay 1,[1]; hemin 1180 μg/l,327 mg/L
same,PRP in mg/l Assay 2,[1]; hemin 1180 μg/l,256 mg/L
same,Mean PRP,[1]; hemin 1770 μg/l,466.5 mg/L
same,PRP in mg/l Assay 1,[1]; hemin 1770 μg/l,487 mg/L
same,PRP in mg/l Assay 2,[1]; hemin 1770 μg/l,446 mg/L
same,Mean PRP,[1]; hemin 2360 μg/l,495.5 mg/L
same,PRP in mg/l Assay 1,[1]; hemin 2360 μg/l,487 mg/L
same,PRP in mg/l Assay 2,[1]; hemin 2360 μg/l,504 mg/L
same,heme source concentration required for optimum / equivalent PRP production,[1]; wheat peptone medium (FIG. 2),about 1500 μg/l
same,Mean PRP,[2]; hemin 11.8 μg/l,4 mg/L
same,PRP in mg/l Assay 1,[2]; hemin 11.8 μg/l,3.82 mg/L
same,PRP in mg/l Assay 2,[2]; hemin 11.8 μg/l,3.79 mg/L
same,Mean PRP,[2]; hemin 59 μg/l,7 mg/L
same,PRP in mg/l Assay 1,[2]; hemin 59 μg/l,7.61 mg/L
same,PRP in mg/l Assay 2,[2]; hemin 59 μg/l,7.13 mg/L
same,Mean PRP,[2]; hemin 118 μg/l,20 mg/L
same,PRP in mg/l Assay 1,[2]; hemin 118 μg/l,23.4 mg/L
same,PRP in mg/l Assay 2,[2]; hemin 118 μg/l,17.5 mg/L
same,Mean PRP,[2]; hemin 295 μg/l,48 mg/L
same,PRP in mg/l Assay 1,[2]; hemin 295 μg/l,51.2 mg/L
same,PRP in mg/l Assay 2,[2]; hemin 295 μg/l,45.4 mg/L
same,Mean PRP,[2]; hemin 590 μg/l,84 mg/L
same,PRP in mg/l Assay 1,[2]; hemin 590 μg/l,95.4 mg/L
same,PRP in mg/l Assay 2,[2]; hemin 590 μg/l,72.9 mg/L
same,Mean PRP,[2]; hemin 1180 μg/l,233 mg/L
same,PRP in mg/l Assay 1,[2]; hemin 1180 μg/l,234 mg/L
same,PRP in mg/l Assay 2,[2]; hemin 1180 μg/l,232 mg/L
same,Mean PRP,[2]; hemin 1770 μg/l,210 mg/L
same,PRP in mg/l Assay 1,[2]; hemin 1770 μg/l,209 mg/L
same,PRP in mg/l Assay 2,[2]; hemin 1770 μg/l,211 mg/L
same,Mean PRP,[2]; hemin 2360 μg/l,494 mg/L
same,PRP in mg/l Assay 1,[2]; hemin 2360 μg/l,505 mg/L
same,PRP in mg/l Assay 2,[2]; hemin 2360 μg/l,482 mg/L
same,Mean PRP,[2]; hemin 3540 μg/l,142 mg/L
same,PRP in mg/l Assay 1,[2]; hemin 3540 μg/l,129 mg/L
same,PRP in mg/l Assay 2,[2]; hemin 3540 μg/l,154 mg/L
same,heme source concentration required for optimum / maximum PRP production,[2]; garden pea peptone medium (FIG. 1),about 2500 μg/l
same,production of PRP (in words),"[2]; plant peptone medium, heme source at 10 μg/l",insignificant
same,production of PRP,"[2]; plant peptone medium, heme source at 50 μg/l (FIGS. 1 and 2)",≤ 10 µg/L
